Calls of active or inactive are those of the source. The calls are words filed in the database; no cut-off is given here.
How the values were obtained:
[1] = test system: Human immunodeficiency virus 1; experiment: Antiviral activity against HIV-1 NL4-3 infected in human M8166 cells assessed as inhibition of viral replication at 20 uM after 5 days by p24 ELISA; type: functional, organism-based
[2] = test system: HEK-293T; experiment: Binding affinity to HIV-1 NL4-3 capsid protein expressed in HEK293T cells by surface plasmon resonance analysis; settings: Human immunodeficiency virus 1
[3] = test system: HEK-293T; experiment: Binding affinity to HIV-1 NL4-3 Pr55Gag expressed in HEK293T cells by surface plasmon resonance analysis; settings: Human immunodeficiency virus 1

SMILES | inhibition [1] | Activity [2] | Activity [3]
Cc1ccnc(SCc2nc3ccccc3s2)n1 | Active |  | 
COC(=O)CCCC[C@@H]1SC[C@@H]2NC(=O)N[C@@H]21 | inactive |  | 
NCCCCCCc1ccnc(SCc2nc3ccccc3s2)n1 | Active |  | 
O=C(CCCC[C@@H]1SC[C@@H]2NC(=O)N[C@@H]21)NCCCCCCc1ccnc(SCc2nc3ccccc3s2)n1 | Active | inactive | inactive

— ChEMBL document CHEMBL3745633, “Synthesis of the biotinylated anti-HIV compound BMMP and the target identification study” (Bioorg Med Chem Lett, 2016)
